Structures can show the parent of a compound that is named as a salt.
Conditions: in vivo

## O=C1OC2(c3ccc(O)cc3Oc3cc(O)ccc32)c2ccccc21 [Fluorescein, fluorescein disodium salt]
  distribution by infection level: greater in trees with lower infection levels compared to trees with high infection levels
  distribution in fruits vs leaves: higher in olive fruits than leaves
  distribution throughout the tree: distributed evenly throughout the tree horizontally and vertically to all the sectors measured

From patent publication US12501864B2 (priority 2020, dated 2025)
